Results on 11 compounds are retold here after PubChem BioAssay AID288 (DTP/NCI, 2004).

The test system of the assay is BDF1 mice, M5076 sarcoma s.c., survival/tumor T/C. Kind of assay: NCI In Vivo Anticancer Drug Screen. Data for tumor model Sarcoma M5076 (subcutaneous) in B6D2F1 (BDF1) mice. As for the experimental part:
The antitumor activity of compounds was measured in mice bearing transplantable tumors. Survival or tumor size were measured and the results are expressed as the measurement made in the treated group (T) divided by the measurement made in the vehicle treated control group (C). The tumor model used in this assay is Sarcoma M5076 (subcutaneous) in B6D2F1 (BDF1) mice

Setting [1] is: endpoint: median survival time, dose: 50.0 mg/kg/injection, schedule: Q01DX009 (ip), vehicle: saline with Tween-80, higher = longer survival.
[2] abbreviates: endpoint: median tumor weight (est.), dose: 50.0 mg/kg/injection, schedule: Q01DX009 (ip), vehicle: saline with Tween-80, higher = larger tumour.
The mark [3] stands for this setting: endpoint: median survival time, dose: 100.0 mg/kg/injection, schedule: Q01DX009 (ip), vehicle: saline with Tween-80, higher = longer survival.
The mark [4] stands for this setting: endpoint: median survival time, dose: 200.0 mg/kg/injection, schedule: Q01DX009 (ip), vehicle: saline with Tween-80, higher = longer survival.

Molecules are shown by their SMILES. Values joined by “and” are separate entries in the source; they are usually repeats but may differ in a detail not shown here. Equal values may be shown once. Records with an inconclusive call do not appear. Numbered stars: 1 amine (or outer) side, 2 acyl side, 3 side chain; on linkers, the order of the positions; unused ones are H or OH. Bridge positions count the residues as written; N and C are the ends. Square brackets hold non-standard residues; d marks the D form. Peptide text beside a SMILES is read from it. I, II: the chains in the order shown. Actinocin(1to9) = Cc1c2oc3c(C)ccc(C(=O)[*:2])c3nc-2c(C(=O)[*:1])c(N)c1=O; NMeV = CN[CH](C(=O)O)C(C)C; Aze = O=C(O)[CH]1CCN1; Sar = CNCC(=O)O

Regarding `Cc1c2oc3c(C)ccc(C(=O)NC4C(=O)NC(C(C)C)C(=O)N5CCCC5C(=O)N(C)CC(=O)N(C)C(C(C)C)C(=O)OC4C)c3nc-2c(C(=O)NC2C(=O)NC(C(C)C)C(=O)N3CCC3C(=O)N(C)CC(=O)N(C)C(C(C)C)C(=O)OC2C)c(N)c1=O` (stereo unspecified) (I: TV[Aze][Sar][NMeV] / II: TVP[Sar][NMeV]; ester I:1-I:C, II:1-II:C; linker I:N-II:N via Actinocin(1to9); configuration not given here), the T/C reads like this: (endpoint: median tumor weight (est.), dose: 14.0 micrograms/kg/injection, schedule: Q02DX011 (ip), vehicle: saline, higher = larger tumour) 112 % of control; (endpoint: median tumor weight (est.), dose: 23.3 micrograms/kg/injection, schedule: Q02DX011 (ip), vehicle: saline, higher = larger tumour) 99 % of control; (endpoint: median tumor weight (est.), dose: 38.9 micrograms/kg/injection, schedule: Q02DX011 (ip), vehicle: saline, higher = larger tumour) 87 % of control; (endpoint: median tumor weight (est.), dose: 64.8 micrograms/kg/injection, schedule: Q02DX011 (ip), vehicle: saline, higher = larger tumour) 120 % of control; (endpoint: median tumor weight (est.), dose: 108.0 micrograms/kg/injection, schedule: Q02DX011 (ip), vehicle: saline, higher = larger tumour) 64 % of control; (endpoint: median tumor weight (est.), dose: 180.0 micrograms/kg/injection, schedule: Q02DX011 (ip), vehicle: saline, higher = larger tumour) 96 % of control. Besides, the T/C (endpoint: median tumor weight (est.), dose: 300.0 micrograms/kg/injection, schedule: Q02DX011 (ip), vehicle: saline, higher = larger tumour) is 59 % of control.

For `O=C1CC(Cl)(CS(F)(F)(F)(F)F)O1` (stereo unspecified), the T/C under setting [1] was 100 % of control and the T/C under setting [2] is 56 % of control.

As for `CC1(C)COCN1COCCOCN1COCC1(C)C`, the T/C runs as follows: (endpoint: median survival time, dose: 50.0 mg/kg/injection, schedule: Q04DX003 (ip), vehicle: saline, higher = longer survival) 103 % of control; (endpoint: median survival time, dose: 100.0 mg/kg/injection, schedule: Q04DX003 (ip), vehicle: saline, higher = longer survival) 95 % of control.

On to `C[c-]1[c-][c-][c-][c-]1.C[c-]1[c-][c-][c-][c-]1.[C-]#[O+].[C-]#[O+].[C-]#[O+].[C-]#[O+].[C-]#[O+].[C-]#[O+].[Mo].[Mo]`, for which the T/C is 111 % of control under setting [3] and 94 % of control under setting [4].

For `CC1(C)OC(C)(C)c2c1nnc(-c1ccccc1[N+](=O)[O-])[n+]2[O-]`, the T/C is 108 % of control under setting [1]; 99 % of control under setting [3]; 103 % of control under setting [4]; 70 % of control under setting [2]; 110 % of control (endpoint: median tumor weight (est.), dose: 100.0 mg/kg/injection, schedule: Q01DX009 (ip), vehicle: saline with Tween-80, higher = larger tumour); 67 % of control (endpoint: median tumor weight (est.), dose: 200.0 mg/kg/injection, schedule: Q01DX009 (ip), vehicle: saline with Tween-80, higher = larger tumour).

For the compound `O=c1[nH]c(=O)n(C2CC(O)C(CO)O2)cc1F` (stereo unspecified), the T/C is, setting by setting: (endpoint: mean tumor weight, dose: 20.0 mg/kg/injection, schedule: Q02DX011 (ip), vehicle: Klucel (hydroxypropylcellulose) (HPC), higher = larger tumour) 66 % of control; (endpoint: mean tumor weight, dose: 40.0 mg/kg/injection, schedule: Q02DX011 (ip), vehicle: Klucel (hydroxypropylcellulose) (HPC), higher = larger tumour) 49 % of control; (endpoint: mean tumor weight, dose: 80.0 mg/kg/injection, schedule: Q02DX011 (ip), vehicle: Klucel (hydroxypropylcellulose) (HPC), higher = larger tumour) 13 % of control; (endpoint: median tumor weight (est.), dose: 20.0 mg/kg/injection, schedule: Q02DX011 (ip), vehicle: Klucel (hydroxypropylcellulose) (HPC), higher = larger tumour) 62 % of control; (endpoint: median tumor weight (est.), dose: 40.0 mg/kg/injection, schedule: Q02DX011 (ip), vehicle: Klucel (hydroxypropylcellulose) (HPC), higher = larger tumour) 46 % of control and 70 % of control; (endpoint: median tumor weight (est.), dose: 160.0 mg/kg/injection, schedule: Q02DX011 (ip), vehicle: Klucel (hydroxypropylcellulose) (HPC), higher = larger tumour) 23 % of control.

In the case of `CNC(=O)c1ccccc1C1(O)c2ccccc2CCc2ccccc21`, the T/C runs as follows: under setting [1], 109 % of control; under setting [4], 100 % of control.

As to `CN(C)c1nc(N(C)C)nc(N(C)C)n1`, the T/C runs as follows: (endpoint: median survival time, dose: 44.0 mg/kg/injection, schedule: Q04DX006 (ip), vehicle: saline with Tween-80, higher = longer survival) 97 % of control; (endpoint: median survival time, dose: 88.0 mg/kg/injection, schedule: Q04DX006 (ip), vehicle: saline with Tween-80, higher = longer survival) 108 % of control; (endpoint: median survival time, dose: 176.0 mg/kg/injection, schedule: Q02DX033 (ip), vehicle: saline with Tween-80, higher = longer survival) 189 % of control; (endpoint: median survival time, dose: 176.0 mg/kg/injection, schedule: Q04DX006 (ip), vehicle: saline with Tween-80, higher = longer survival) 120 % of control; (endpoint: median survival time, dose: 352.0 mg/kg/injection, schedule: Q04DX006 (ip), vehicle: saline with Tween-80, higher = longer survival) 112 % of control; (endpoint: median tumor weight (est.), dose: 30.0 mg/kg/injection, schedule: Q02DX011 (ip), vehicle: saline with Tween-80, higher = larger tumour) 110 % of control. Moreover, the T/C was 54 % of control (endpoint: median tumor weight (est.), dose: 60.0 mg/kg/injection, schedule: Q02DX011 (ip), vehicle: saline with Tween-80, higher = larger tumour) and 17 % of control (endpoint: median tumor weight (est.), dose: 120.0 mg/kg/injection, schedule: Q02DX011 (ip), vehicle: saline with Tween-80, higher = larger tumour).

Consider `O=NN(CCCl)C(=O)NCCCl`, for which the T/C is 108 % of control (endpoint: median survival time, dose: 1.35 mg/kg/injection, schedule: Q04DX009 (ip), vehicle: saline with Tween-80, higher = longer survival); 233 % of control (endpoint: median survival time, dose: 2.7 mg/kg/injection, schedule: Q02DX033 (ip), vehicle: saline, higher = longer survival); 121 % of control (endpoint: median survival time, dose: 2.7 mg/kg/injection, schedule: Q04DX009 (ip), vehicle: saline with Tween-80, higher = longer survival); 171 % of control (endpoint: median survival time, dose: 5.4 mg/kg/injection, schedule: Q02DX033 (ip), vehicle: saline, higher = longer survival); 254 % of control (endpoint: median survival time, dose: 5.4 mg/kg/injection, schedule: Q04DX009 (ip), vehicle: saline with Tween-80, higher = longer survival); 159 % of control (endpoint: median survival time, dose: 6.0 mg/kg/injection, schedule: Q01DX009 (ip), vehicle: saline + alcohol, higher = longer survival). Also, the T/C runs as follows: (endpoint: median survival time, dose: 10.8 mg/kg/injection, schedule: Q04DX009 (ip), vehicle: saline with Tween-80, higher = longer survival) 238 % of control; (endpoint: median tumor weight (est.), dose: 1.5 mg/kg/injection, schedule: Q01DX009 (ip), vehicle: saline + alcohol, higher = larger tumour) 25 % of control.

`CC[C@]1(O)C[C@H]2CN(CCc3c([nH]c4ccccc34)[C@@](C(=O)OC)(c3cc4c(cc3OC)N(C=O)[C@H]3[C@@](O)(C(=O)OC)[C@H](OC(C)=O)[C@]5(CC)C=CCN6CC[C@]43[C@@H]65)C2)C1`: the T/C by setting is: (endpoint: median survival time, dose: 0.08 mg/kg/injection, schedule: Q02DX030 (ip), vehicle: saline, higher = longer survival) 110 % of control; (endpoint: median survival time, dose: 0.08 mg/kg/injection, schedule: Q04DX006 (ip), vehicle: saline, higher = longer survival) 112 % of control; (endpoint: median survival time, dose: 0.15 mg/kg/injection, schedule: Q04DX006 (ip), vehicle: saline, higher = longer survival) 97 % of control; (endpoint: median survival time, dose: 0.3 mg/kg/injection, schedule: Q04DX006 (ip), vehicle: saline, higher = longer survival) 103 % of control; (endpoint: median survival time, dose: 0.6 mg/kg/injection, schedule: Q04DX006 (ip), vehicle: saline, higher = longer survival) 109 % of control.

Regarding `CCOC(=O)CCC1(C(=O)OC)C(=O)CCCCCCCC1C(=O)OC` (stereo unspecified), the T/C was 100 % of control under setting [1], 100 % of control under setting [3] and 115 % of control under setting [4].
